Where a name gives a salt, the structure may show the parent alone.

As a reminder, the IC50 is the concentration that inhibits the measured activity by half. Higher therefore signals weaker potency in that assay.

Test [1] deals with T1, human muscarinic acetylcholine M3 receptor (Homo sapiens, UniProt P20309).
T1 construct: expressed in transfected cells; host or cells: CHO-K1 (Chinese Hamster Ovary) cell membranes
As to the kind of experiment: Muscarinic 3 receptor binding assay ([3H]NMS competition, SPA), pIC50. The conditions noted are these: [3H]NMS 0.1 nM, CHO-K1 cell membranes expressing human M3 receptor. The essentials:
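Competition of [3H]NMS (0.1 nM, quarter Kd) binding to CHO-K1 membranes expressing human M3, SPA format, in 20 mM HEPES pH 7.4, 5 mM MgCl2, 0.1% BSA, 1% DMSO. Incubated 16 h at room temperature; non-specific binding with 1 μM atropine; pIC50 from specific binding.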

The target in another test is T2, Adrenergic β2 (Homo sapiens, UniProt P07550).
T2 construct: Adherent H292 cells are removed from tissue culture flasks by treatment with Accutase™ cell detachment solution; endogenous in cells; host or cells: H292 cells
As to the kind of experiment: Adrenergic β2 mediated cAMP production in H292 cells (AlphaScreen), concentration response. The conditions noted are these: for EC50: 60 min, 300 μM rolipram, read-out: β2 pEC50 (converted); for β2 Intrinsic Activity: fraction relative to the maximum activity determined for formoterol. The format is cell-based. In a few lines:
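H292 cells seeded overnight, pretreated 10 min with rolipram (300 μM final), then exposed to compounds 60 min at room temperature in HBSS/10 mM HEPES pH 7.4/5 mM glucose, 1% DMSO. Lysate cAMP quantified by AlphaScreen against a standard curve; four-parameter fit gives pEC50 and intrinsic activity relative to formoterol maximum.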
(Cyclic AMP is a second messenger, typically raised through Gs and lowered through Gi signalling.)

T2 sequence (P07550 whole entry): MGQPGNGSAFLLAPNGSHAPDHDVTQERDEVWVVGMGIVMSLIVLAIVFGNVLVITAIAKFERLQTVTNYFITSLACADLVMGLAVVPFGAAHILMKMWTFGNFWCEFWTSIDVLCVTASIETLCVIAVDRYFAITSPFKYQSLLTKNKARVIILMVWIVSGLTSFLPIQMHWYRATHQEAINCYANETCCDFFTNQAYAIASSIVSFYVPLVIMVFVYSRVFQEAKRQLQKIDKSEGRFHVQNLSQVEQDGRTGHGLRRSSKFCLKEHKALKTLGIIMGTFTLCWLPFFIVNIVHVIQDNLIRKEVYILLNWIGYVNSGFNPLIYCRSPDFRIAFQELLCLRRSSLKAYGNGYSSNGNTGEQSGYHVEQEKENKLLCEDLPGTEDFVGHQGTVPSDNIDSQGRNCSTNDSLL
T1 sequence (P20309 whole entry): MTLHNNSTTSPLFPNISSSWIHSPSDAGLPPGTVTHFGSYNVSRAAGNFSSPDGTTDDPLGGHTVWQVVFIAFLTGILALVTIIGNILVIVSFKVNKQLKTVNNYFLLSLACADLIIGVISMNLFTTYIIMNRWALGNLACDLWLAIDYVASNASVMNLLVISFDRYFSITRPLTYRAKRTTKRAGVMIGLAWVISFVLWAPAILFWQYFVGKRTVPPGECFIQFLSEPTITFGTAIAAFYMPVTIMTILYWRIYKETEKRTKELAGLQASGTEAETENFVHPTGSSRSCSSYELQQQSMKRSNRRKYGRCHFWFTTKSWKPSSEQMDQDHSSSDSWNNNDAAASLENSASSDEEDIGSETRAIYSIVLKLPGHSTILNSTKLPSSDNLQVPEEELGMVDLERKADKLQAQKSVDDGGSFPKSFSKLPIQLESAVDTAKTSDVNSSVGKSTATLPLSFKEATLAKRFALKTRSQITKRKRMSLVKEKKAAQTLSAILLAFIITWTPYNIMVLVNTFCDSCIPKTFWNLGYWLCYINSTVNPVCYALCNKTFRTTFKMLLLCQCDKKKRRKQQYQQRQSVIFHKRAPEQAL

With `CC(C)c1ccc(C(=O)N2CCOC3(CCN(Cc4cccc(CCOCCC(=O)N(CCNCCc5ccc(O)c6c5OCC(=O)N6)C5CCCCC5)c4)CC3)C2)s1` [Example 90, N-Cyclohexyl-N-(2-(2-(5-hydroxy-3-oxo-3,4-dihydro-2H-benzo[b][1,4]oxazin-8-yl)ethylamino)ethyl)-3-(3-((4-(5-isopropylthiophene-2-carbonyl)-1-oxa-4,9-diazaspiro[5.5]undecan-9-yl)methyl)phenethoxy)propanamide], in test [1], the IC50 was 0.501 nM. On Adrenergic β2, the EC50 is 251 nM and the “β2 Intrinsic Activity” value was found to be 1.0.

`CC(C)c1cc(C(=O)N2CCOC3(CCN(Cc4cccc(CCOCCC(=O)N(CCNCCc5ccc(O)c6c5OCC(=O)N6)C5CCCCC5)c4)CC3)C2)cs1` [Example 91, N-Cyclohexyl-N-(2-(2-(5-hydroxy-3-oxo-3,4-dihydro-2H-benzo[b][1,4]oxazin-8-yl)ethylamino)ethyl)-3-(3-((4-(5-isopropylthiophene-3-carbonyl)-1-oxa-4,9-diazaspiro[5.5]undecan-9-yl)methyl)phenethoxy)propanamide] showed an IC50 in test [1] of 0.2 nM. Besides, at Adrenergic β2, the EC50 is 251 nM and the “β2 Intrinsic Activity” value stood at 1.2.

On to `O=C1COc2c(CCNCCN(C(=O)CCOCCc3cccc(CN4CCC5(CC4)CN(C(=O)c4ccc6sccc6c4)CCO5)c3)C3CCCCC3)ccc(O)c2N1` [Example 92, 3-(3-((4-(Benzo[b]thiophene-5-carbonyl)-1-oxa-4,9-diazaspiro[5.5]undecan-9-yl)methyl)phenethoxy)-N-cyclohexyl-N-(2-(2-(5-hydroxy-3-oxo-3,4-dihydro-2H-benzo[b][1,4]oxazin-8-yl)ethylamino)ethyl)propanamide], for which the 50% inhibitory concentration (IC50) in test [1] was 1.26 nM. Besides, on Adrenergic β2, the EC50 was 251 nM and the “β2 Intrinsic Activity” value was found to be 1.1.

Regarding `CCCc1cc(C(=O)N2CCOC3(CCN(Cc4cccc(CCOCCC(=O)N(CCNCCc5ccc(O)c6c5OCC(=O)N6)C5CCCCC5)c4)CC3)C2)cs1` [Example 93, N-Cyclohexyl-N-(2-(2-(5-hydroxy-3-oxo-3,4-dihydro-2H-benzo[b][1,4]oxazin-8-yl)ethylamino)ethyl)-3-(3-((4-(5-propylthiophene-3-carbonyl)-1-oxa-4,9-diazaspiro[5.5]undecan-9-yl)methyl)phenethoxy)propanamide], the IC50 in test [1] is 0.2 nM. On Adrenergic β2, the EC50 is 251 nM and the “β2 Intrinsic Activity” value is reported as 1.1.

Compound `CC(C)Cc1nc(C(=O)N2CCOC3(CCN(Cc4cccc(CCOCCC(=O)N(CCNCCc5ccc(O)c6c5OCC(=O)N6)C5CCCCC5)c4)CC3)C2)cs1` [Example 94, N-Cyclohexyl-N-(2-(2-(5-hydroxy-3-oxo-3,4-dihydro-2H-benzo[b][1,4]oxazin-8-yl)ethylamino)ethyl)-3-(3-((4-(2-isobutylthiazole-4-carbonyl)-1-oxa-4,9-diazaspiro[5.5]undecan-9-yl)methyl)phenethoxy)propanamide] had an IC50 in test [1] of 0.251 nM. For the same compound, on Adrenergic β2, the EC50 is 126 nM and the “β2 Intrinsic Activity” value worked out at 1.0.

In test [1], `CCc1nc(C(=O)N2CCOC3(CCN(Cc4cccc(CCOCCC(=O)N(CCNCCc5ccc(O)c6c5OCC(=O)N6)C5CCCCC5)c4)CC3)C2)cs1` [Example 95, N-Cyclohexyl-3-(3-((4-(2-ethylthiazole-4-carbonyl)-1-oxa-4,9-diazaspiro[5.5]undecan-9-yl)methyl)phenethoxy)-N-(2-(2-(5-hydroxy-3-oxo-3,4-dihydro-2H-benzo[b][1,4]oxazin-8-yl)ethylamino)ethyl)propanamide] had an IC50 of 0.126 nM. Also, on Adrenergic β2, the EC50 was 100 nM and the “β2 Intrinsic Activity” value was 1.0.

`CCC(CC)c1nc(C(=O)N2CCOC3(CCN(Cc4cccc(CCOCCC(=O)N(CCNCCc5ccc(O)c6c5OCC(=O)N6)C5CCCCC5)c4)CC3)C2)cs1` [Example 96, N-Cyclohexyl-N-(2-(2-(5-hydroxy-3-oxo-3,4-dihydro-2H-benzo[b][1,4]oxazin-8-yl)ethylamino)ethyl)-3-(3-((4-(2-(pentan-3-yl)thiazole-4-carbonyl)-1-oxa-4,9-diazaspiro[5.5]undecan-9-yl)methyl)phenethoxy)propanamide]: the IC50 in test [1] is 0.251 nM. Moreover, at Adrenergic β2, the EC50 is 158 nM and the “β2 Intrinsic Activity” value came to 1.0.

Turning to `CC(C)c1cccc(C(=O)N2CCOC3(CCN(Cc4cccc(CCOCCC(=O)N(CCNCCc5ccc(O)c6c5OCC(=O)N6)C5CCCCC5)c4)CC3)C2)n1` [Example 97, N-Cyclohexyl-N-(2-(2-(5-hydroxy-3-oxo-3,4-dihydro-2H-benzo[b][1,4]oxazin-8-yl)ethylamino)ethyl)-3-(3-((4-(6-isopropylpicolinoyl)-1-oxa-4,9-diazaspiro[5.5]undecan-9-yl)methyl)phenethoxy)propanamide], the half-inhibitory concentration (IC50) in test [1] is 1.26 nM. On Adrenergic β2, the EC50 is 158 nM and the “β2 Intrinsic Activity” value is on record as 1.0.

Consider `CC(C)c1csc(C(=O)N2CCOC3(CCN(Cc4cccc(CCOCCC(=O)N(CCNCCc5ccc(O)c6c5OCC(=O)N6)C5CCCCC5)c4)CC3)C2)c1` [Example 98, N-Cyclohexyl-N-(2-(2-(5-hydroxy-3-oxo-3,4-dihydro-2H-benzo[b][1,4]oxazin-8-yl)ethylamino)ethyl)-3-(3-((4-(4-isopropylthiophene-2-carbonyl)-1-oxa-4,9-diazaspiro[5.5]undecan-9-yl)methyl)phenethoxy)propanamide], for which the IC50 in test [1] is 0.794 nM. In addition, at Adrenergic β2, the EC50 was 200 nM and the “β2 Intrinsic Activity” value came to 1.1.

As for `CC(C)c1nc(C(=O)N2CCOC3(CN(CCc4cccc(CCOCCC(=O)N(CCNCCc5ccc(O)c6c5OCC(=O)N6)C5CCCCC5)c4)C3)C2)cs1` [Example 176, N-Cyclohexyl-N-(2-(2-(5-hydroxy-3-oxo-3,4-dihydro-2H-benzo[b][1,4]oxazin-8-yl)ethylamino)ethyl)-3-(3-(2-(8-(2-isopropylthiazole-4-carbonyl)-5-oxa-2,8-diazaspiro[3.5]nonan-2-yl)ethyl)phenethoxy)propanamide, trifluoroacetate salt], the IC50 in test [1] was 2.51 nM. Moreover, on Adrenergic β2, the EC50 was 15.8 nM and the “β2 Intrinsic Activity” value is 1.2.

As to `CCN(CCNCCc1ccc(O)c2c1OCC(=O)N2)C(=O)CCOCCc1cccc(CCN2CC3(C2)CN(C(=O)c2csc(C(C)C)n2)CCO3)c1` [Example 177, N-ethyl-N-(2-(2-(5-hydroxy-3-oxo-3,4-dihydro-2H-benzo[b][1,4]oxazin-8-yl)ethylamino)ethyl)-3-(3-(2-(8-(2-isopropylthiazole-4-carbonyl)-5-oxa-2,8-diazaspiro[3.5]nonan-2-yl)ethyl)phenethoxy)propanamide, trifluoroacetate salt], in test [1], the IC50 was 1.26 nM. At Adrenergic β2, the EC50 is 10 nM and the “β2 Intrinsic Activity” value was found to be 1.1.

With `CCCCN(CCNCCc1ccc(O)c2c1OCC(=O)N2)C(=O)CCOCCc1ccccc1OCCN1CCC2(CC1)CN(C(=O)c1csc(C(C)C)n1)CCO2` [Example 178, N-butyl-N-(2-(2-(5-hydroxy-3-oxo-3,4-dihydro-2H-benzo[b][1,4]oxazin-8-yl)ethylamino)ethyl)-3-(2-(2-(4-(2-isopropylthiazole-4-carbonyl)-1-oxa-4,9-diazaspiro[5.5]undecan-9-yl)ethoxy)phenethoxy)propanamide trifluoroacetate salt], the IC50 in test [1] was 12.6 nM. At Adrenergic β2, the EC50 was 501 nM and the “β2 Intrinsic Activity” value was determined as 1.2.

The record behind these values is US8476265B2, “Compounds-801” (AstraZeneca AB, priority 2010, dated 2013).
